Test results as given in patent US8993542B2, “Methods of treating viral infections” (priority 2008, dated 2015).

Columns and labels:
HIV-1IIIB = assay: Two-drug combination antiviral assay in CEM cells (CPE), MacSynergy II; assay type: cell-based; settings: for Antagonism Volume, Result 1 / Antagonism Volume, Result 2 / Antagonism Volume, Result 3 / Mean Antagonism Volume (n = 3) / Mean Synergy Volume (n = 3) / Synergy Volume, Result 1 / Synergy Volume, Result 2 / Synergy Volume, Result 3: in combination with CMX157, CEM-SS cells, 95% confidence
HIV = assay: microbe, parasite or virus in culture; assay type: cell-based
[1] = Human immunodeficiency virus 1, PANEL 1, WT
[2] = Human immunodeficiency virus 1, PANEL 2, WT
[3] = Human immunodeficiency virus 1, PANEL 3, 6 TAMs, no 184
[4] = Human immunodeficiency virus 1, PANEL 6, 6 TAMs + 184
[5] = Human immunodeficiency virus 1, PANEL 7, 184V
[6] = Human immunodeficiency virus 1, PANEL 9, 69ins, no 184
[7] = Human immunodeficiency virus 1, PANEL 12, 69ins + 184
[8] = Human immunodeficiency virus 1, PANEL 14, 65R, no 184
[9] = Human immunodeficiency virus 1, PANEL 15, 65R + 184V
[10] = Human immunodeficiency virus 1, PANEL 17, L74V
[11] = Human immunodeficiency virus 1, PANEL 19, L74V + M184V
[12] = Human immunodeficiency virus 1, PANEL 26, 151M, no 184
[13] = Human immunodeficiency virus 1, PANEL 28, 151M + 184
[14] = Human immunodeficiency virus 1, PANEL 29, L74V − SDM
[15] = Human immunodeficiency virus 1, PANEL 30, M184V − SDM
[16] = Human immunodeficiency virus 1, PANEL 31, K65R − SDM
[17] = Human immunodeficiency virus 1, PANEL 33, T215Y
[18] = Human immunodeficiency virus 1, PANEL 34, T215Y + M184V
[19] = Human immunodeficiency virus 1, PANEL 35, M41L + T215Y
[20] = Human immunodeficiency virus 1, PANEL 37, M41L + T215Y + M184V
[21] = Human immunodeficiency virus 1, PANEL 38, M41L + L210W + T215Y
[22] = Human immunodeficiency virus 1, PANEL 39, M41L + L210W + T215Y
[23] = Human immunodeficiency virus 1, PANEL 40, M41L + L210W + T215Y + M184V
[24] = Human immunodeficiency virus 1, PANEL 41, M41L + L210W + T215Y + M184V
[25] = Human immunodeficiency virus 1, PANEL 42, D67N + K70R
[26] = Human immunodeficiency virus 1, PANEL 44, D67N + K70R + T215F + K219E + M184V
[27] = Human immunodeficiency virus 1, PANEL 45, L210W + T215Y
[28] = Human immunodeficiency virus 1, PANEL 46, D67N + K70E
[29] = Human immunodeficiency virus 1, PANEL 47, D67N + K70E + M184V
[30] = Human immunodeficiency virus 1, PANEL 48, K70E + M184V
[31] = PANEL 40, M41L + L210W + T215Y + M184V
[32] = PANEL 41, M41L + L210W + T215Y + M184V
[33] = PANEL 44, D67N + K70R + T215F + K219E + M184V

SMILES: Nc1nc(=O)n(C2CSC(CO)O2)cc1F (centres unmarked) [FTC, 2-hydroxymethyl-5-(5-fluorocytosin-1-yl)-1,3-oxathiolane]
- Antagonism Volume, Result 1 (HIV-1IIIB): 0 nM^2 %, μM^2 % or nMμM %
- Antagonism Volume, Result 2 (HIV-1IIIB): 0 nM^2 %, μM^2 % or nMμM %
- Antagonism Volume, Result 3 (HIV-1IIIB): 0 nM^2 %, μM^2 % or nMμM %
- Mean Antagonism Volume (n = 3) (HIV-1IIIB): 0 nM^2 %, μM^2 % or nMμM %
- Mean Synergy Volume (n = 3) (HIV-1IIIB): 72.5 nM^2 %, μM^2 % or nMμM %
- Synergy Volume, Result 1 (HIV-1IIIB): 61.5 nM^2 %, μM^2 % or nMμM %
- Synergy Volume, Result 2 (HIV-1IIIB): 72.0 nM^2 %, μM^2 % or nMμM %
- Synergy Volume, Result 3 (HIV-1IIIB): 84.1 nM^2 %, μM^2 % or nMμM %
- Interpretation of Antiviral Results (MacSynergy) (HIV-1IIIB; two-drug combination (with CMX157; control d4T/RBV), CEM-SS cells, listed as emtricitabine): slightly synergistic
- IC50 (HIV; [1]): 0.89 µM
- IC50 (HIV; [2]): 1.57 µM
- IC50 (HIV; [3]): 5.73 µM
- IC50 (HIV; [4]): > 100 µM
- IC50 (HIV; [5]): > 100 µM
- IC50 (HIV; [6]): 29.6 µM
- IC50 (HIV; [7]): > 100 µM
- IC50 (HIV; [8]): 19.3 µM
- IC50 (HIV; [9]): > 100 µM
- IC50 (HIV; [10]): 2.14 µM
- IC50 (HIV; [11]): > 100 µM
- IC50 (HIV; [12]): 34.7 µM
- IC50 (HIV; [13]): > 100 µM
- IC50 (HIV; [14]): 1.68 µM
- IC50 (HIV; [15]): > 100 µM
- IC50 (HIV; [16]): 12.9 µM
- IC50 (HIV; [17]): 2.64 µM
- IC50 (HIV; [18]): > 100 µM
- IC50 (HIV; [19]): 3.13 µM
- IC50 (HIV; [20]): > 100 µM
- IC50 (HIV; [21]): 4.22 µM
- IC50 (HIV; [22]): 2.16 µM
- IC50 (HIV; [23]): > 100 µM
- IC50 (HIV; [24]): > 100 µM
- IC50 (HIV; [25]): 3.28 µM
- IC50 (HIV; [26]): > 100 µM
- IC50 (HIV; [27]): 2.62 µM
- IC50 (HIV; [28]): 3.39 µM
- IC50 (HIV; [29]): > 100 µM
- IC50 (HIV; [30]): > 100 µM
- IC50 Fold Change (HIV; PANEL 1, WT): 0.78
- IC50 Fold Change (HIV; PANEL 2, WT): 1.38
- IC50 Fold Change (HIV; PANEL 3, 6 TAMs, no 184): 5.02
- IC50 Fold Change (HIV; PANEL 6, 6 TAMs + 184): >87.6048
- IC50 Fold Change (HIV; PANEL 7, 184V): >87.6048
- IC50 Fold Change (HIV; PANEL 9, 69ins, no 184): 26.00
- IC50 Fold Change (HIV; PANEL 12, 69ins + 184): >87.6048
- IC50 Fold Change (HIV; PANEL 14, 65R, no 184): 17.00
- IC50 Fold Change (HIV; PANEL 15, 65R + 184V): >87.6048
- IC50 Fold Change (HIV; PANEL 17, L74V): 1.87
- IC50 Fold Change (HIV; PANEL 19, L74V + M184V): >87.6048
- IC50 Fold Change (HIV; PANEL 26, 151M, no 184): 30.00
- IC50 Fold Change (HIV; PANEL 28, 151M + 184): >87.6048
- IC50 Fold Change (HIV; PANEL 29, L74V − SDM): 1.47
- IC50 Fold Change (HIV; PANEL 30, M184V − SDM): >87.6048
- IC50 Fold Change (HIV; PANEL 31, K65R − SDM): 11.00
- IC50 Fold Change (HIV; PANEL 33, T215Y): 2.31
- IC50 Fold Change (HIV; PANEL 34, T215Y + M184V): >87.6048
- IC50 Fold Change (HIV; PANEL 35, M41L + T215Y): 2.74
- IC50 Fold Change (HIV; PANEL 37, M41L + T215Y + M184V): >87.6048
- IC50 Fold Change (HIV; PANEL 38, M41L + L210W + T215Y): 3.70
- IC50 Fold Change (HIV; PANEL 39, M41L + L210W + T215Y): 1.89
- IC50 Fold Change (HIV; [31]): >87.6048
- IC50 Fold Change (HIV; [32]): >87.6048
- IC50 Fold Change (HIV; PANEL 42, D67N + K70R): 2.87
- IC50 Fold Change (HIV; [33]): >87.6048
- IC50 Fold Change (HIV; PANEL 45, L210W + T215Y): 2.29
- IC50 Fold Change (HIV; PANEL 46, D67N + K70E): 2.97
- IC50 Fold Change (HIV; PANEL 47, D67N + K70E + M184V): >87.6048
- IC50 Fold Change (HIV; PANEL 48, K70E + M184V): >87.6048

SMILES: Cc1cn([C@H]2C=C[C@@H](CO)O2)c(=O)[nH]c1=O [d4T, 2′,3′-didehydro-3′-deoxythymidine]
- Antagonism Volume, Result 1 (HIV-1IIIB): 0 nM^2 %, μM^2 % or nMμM %
- Antagonism Volume, Result 2 (HIV-1IIIB): 0 nM^2 %, μM^2 % or nMμM %
- Antagonism Volume, Result 3 (HIV-1IIIB): −1.83 nM^2 %, μM^2 % or nMμM %
- Mean Antagonism Volume (n = 3) (HIV-1IIIB): −0.61 nM^2 %, μM^2 % or nMμM %
- Mean Synergy Volume (n = 3) (HIV-1IIIB): 15.2 nM^2 %, μM^2 % or nMμM %
- Synergy Volume, Result 1 (HIV-1IIIB): 4.47 nM^2 %, μM^2 % or nMμM %
- Synergy Volume, Result 2 (HIV-1IIIB): 40.6 nM^2 %, μM^2 % or nMμM %
- Synergy Volume, Result 3 (HIV-1IIIB): 0.39 nM^2 %, μM^2 % or nMμM %
- IC50 (HIV; [1]): 0.51 µM
- IC50 (HIV; [2]): 0.48 µM
- IC50 (HIV; [3]): 2.17 µM
- IC50 (HIV; [4]): 1.35 µM
- IC50 (HIV; [5]): 0.46 µM
- IC50 (HIV; [6]): 6.39 µM
- IC50 (HIV; [7]): 6.79 µM
- IC50 (HIV; [8]): 0.77 µM
- IC50 (HIV; [9]): 0.59 µM
- IC50 (HIV; [10]): 0.6 µM
- IC50 (HIV; [11]): 0.42 µM
- IC50 (HIV; [12]): 5.54 µM
- IC50 (HIV; [13]): 4.22 µM
- IC50 (HIV; [14]): 0.63 µM
- IC50 (HIV; [15]): 0.4 µM
- IC50 (HIV; [16]): 0.83 µM
- IC50 (HIV; [17]): 0.83 µM
- IC50 (HIV; [18]): 0.65 µM
- IC50 (HIV; [19]): 0.84 µM
- IC50 (HIV; [20]): 0.86 µM
- IC50 (HIV; [21]): 1.22 µM
- IC50 (HIV; [22]): 1.09 µM
- IC50 (HIV; [23]): 0.88 µM
- IC50 (HIV; [24]): 1.05 µM
- IC50 (HIV; [25]): 0.78 µM
- IC50 (HIV; [26]): 0.79 µM
- IC50 (HIV; [27]): 0.94 µM
- IC50 (HIV; [28]): 0.56 µM
- IC50 (HIV; [29]): 0.42 µM
- IC50 (HIV; [30]): 0.39 µM
- IC50 Fold Change (HIV; PANEL 1, WT): 0.86
- IC50 Fold Change (HIV; PANEL 2, WT): 0.81
- IC50 Fold Change (HIV; PANEL 3, 6 TAMs, no 184): 3.66
- IC50 Fold Change (HIV; PANEL 6, 6 TAMs + 184): 2.28
- IC50 Fold Change (HIV; PANEL 7, 184V): 0.77
- IC50 Fold Change (HIV; PANEL 9, 69ins, no 184): 11.00
- IC50 Fold Change (HIV; PANEL 12, 69ins + 184): 11.00
- IC50 Fold Change (HIV; PANEL 14, 65R, no 184): 1.30
- IC50 Fold Change (HIV; PANEL 15, 65R + 184V): 0.99
- IC50 Fold Change (HIV; PANEL 17, L74V): 1.01
- IC50 Fold Change (HIV; PANEL 19, L74V + M184V): 0.71
- IC50 Fold Change (HIV; PANEL 26, 151M, no 184): 9.33
- IC50 Fold Change (HIV; PANEL 28, 151M + 184): 7.10
- IC50 Fold Change (HIV; PANEL 29, L74V − SDM): 1.07
- IC50 Fold Change (HIV; PANEL 30, M184V − SDM): 0.68
- IC50 Fold Change (HIV; PANEL 31, K65R − SDM): 1.40
- IC50 Fold Change (HIV; PANEL 33, T215Y): 1.40
- IC50 Fold Change (HIV; PANEL 34, T215Y + M184V): 1.10
- IC50 Fold Change (HIV; PANEL 35, M41L + T215Y): 1.41
- IC50 Fold Change (HIV; PANEL 37, M41L + T215Y + M184V): 1.46
- IC50 Fold Change (HIV; PANEL 38, M41L + L210W + T215Y): 2.06
- IC50 Fold Change (HIV; PANEL 39, M41L + L210W + T215Y): 1.84
- IC50 Fold Change (HIV; [31]): 1.48
- IC50 Fold Change (HIV; [32]): 1.77
- IC50 Fold Change (HIV; PANEL 42, D67N + K70R): 1.31
- IC50 Fold Change (HIV; [33]): 1.32
- IC50 Fold Change (HIV; PANEL 45, L210W + T215Y): 1.58
- IC50 Fold Change (HIV; PANEL 46, D67N + K70E): 0.94
- IC50 Fold Change (HIV; PANEL 47, D67N + K70E + M184V): 0.70
- IC50 Fold Change (HIV; PANEL 48, K70E + M184V): 0.65
